Source: US11707454B2, “Topical roflumilast formulation having antifungal properties” (ARCUTIS BIOTHERAPEUTICS, INC., priority 2020, dated 2023)
In brackets after ≈: the same amount, converted by molar mass. Read-outs that look alike come from different tables or passages of the source.

Experiments:
C. krusei (ATCC 6258) [1] = test: in vitro micro-dilution susceptibility assay (method of Rojas); format: cell-based; settings: for MIC: Pichia kudriavzevii, read-out: minimum inhibition concentration (MIC)
Description: (§1) The in vitro susceptibility of Malassezia species to roflumilast was determined utilizing three Candida species as internal control isolates for all testing. These three isolates were C. albicans American Type Culture Collection (ATCC) 90028, C. krusei (ATCC 6258) and C. parapsilosis (ATCC 22019). In addition to testing roflumilast all susceptibility assays were conducted using ketoconazole and hydrocortisone as positive and negative control compounds, respectively. All assays were placed within a humidified incubator set to 32° C. for a total of seven days. Each assay was evaluated after 12 hours of incubation and, every 24 hours post incubation for a total of seven days. The assays were evaluated for visual growth of each pathogen in the no treatment control as well as determination of minimum inhibition concentration (MIC) values. The concentration that provides a 3-log10 CFU/mL reduction in fungal burden from baseline at day 0 was defined as the minimum fungicidal concentration (MHC) and was determined by quantifying fungal burdens found in the microplate at day seven.
(§2) The method of Rojas (Rojas F D, et al. Antifungal susceptibility of Malassezia furfur, Malassezia sympodialis, and Malassezia globose to azole drugs and amphotericin B evaluated using a broth microdilution method. 2014. Medical Mycology. 52:641-646) was used in which the liquid broth medium was RPMI 1640 with added 1.8% glucose, 1% peptone, 0.5% ox-bile, 0.5% malt extract, 1% glycerol, 0.5% Tween 40 and 0.05% Tween 80. Round bottom 96 well microplates were used. The inoculums were prepared in sterile saline and diluted to a final targeted concentration of 0.5×10^5 to 2.5×10^5 CFU/mL in supplemented RPMI. […] For the internal control isolate C. parapsilosis (ATCC 22019) the expected CLSI values for ketoconazole of 0.03-0.25 (at 24 hours) and 0.06-0.5 (at 48 hours) did agree with the 2-day value (Table A) of 0.5.

M. furfur (ATCC 14521) = test: as above; format: cell-based; settings: for MIC: Malassezia furfur, read-out: minimum inhibition concentration (MIC)
Description: as §1, §2

M. furfur (ATCC 44344) = test: as above; format: cell-based; settings: for MIC: Malassezia furfur, read-out: minimum inhibition concentration (MIC)
Description: as §1, §2

M. furfur (ATCC 12078) = test: as above; format: cell-based; settings: for MIC: Malassezia furfur, read-out: minimum inhibition concentration (MIC)
Description: as §1, §2

[2] = system: C. parapsilosis (ATCC 22019); test: as above; format: cell-based; settings: C. parapsilosis (22019); for MIC: Lodderomyces parapsilosis, read-out: minimum inhibition concentration (MIC)
Description: as §1, §2

C. albicans (ATCC 90028) = test: as above; format: cell-based; settings: for MIC: Candida albicans, read-out: minimum inhibition concentration (MIC)
Description: as §1, §2

[3] = system: M. restricta (ATCC MYA-4611); test: as above; format: cell-based
Description: as §1, §2

[4] = system: M. globose (ATCC MYA-4889); test: as above; format: cell-based
Description: as §1, §2

[5] = system: C. parapsilosis (ATCC 22019); settings: cited from earlier work
C. krusei (ATCC 6258) [6] = settings: cited from earlier work

## CC(=O)N1CCN(c2ccc(OCC3COC(Cn4ccnc4)(c4ccc(Cl)cc4Cl)O3)cc2)CC1 (centres unmarked) [Ketoconazole]
C. krusei (ATCC 6258) [1]; ATCC6258, 24 h, Time 1 days
  MIC: 4 mg/L (≈ 7.53 µM)
C. krusei (ATCC 6258) [1]; ATCC6258, 48 h, Time 2 days
  MIC: 8 mg/L (≈ 15.1 µM)
C. krusei (ATCC 6258) [1]; ATCC6258, 72 h, Time 3 days
  MIC: 16 mg/L (≈ 30.1 µM)
C. krusei (ATCC 6258) [1]; ATCC6258, 96 h, Time 4 days
  MIC: 16 mg/L (≈ 30.1 µM)
C. krusei (ATCC 6258) [1]; ATCC6258, 120 h, Time 5 days
  MIC: 16 mg/L (≈ 30.1 µM)
C. krusei (ATCC 6258) [1]; ATCC6258, 144 h, Time 6 days
  MIC: 32 mg/L (≈ 60.2 µM)
C. krusei (ATCC 6258) [1]; ATCC6258, 168 h, Time 7 days
  MIC: 32 mg/L (≈ 60.2 µM)
C. krusei (ATCC 6258) [1]; Time 0.5 days
  minimum inhibition concentration (MIC): NGO
M. furfur (ATCC 14521); ATCC14521, 48 h, Time 2 days
  MIC: 0.03 mg/L (≈ 0.0565 µM)
M. furfur (ATCC 14521); ATCC14521, 72 h, Time 3 days
  MIC: 0.06 mg/L (≈ 0.113 µM)
M. furfur (ATCC 14521); ATCC14521, 96 h, Time 4 days
  MIC: 0.06 mg/L (≈ 0.113 µM)
M. furfur (ATCC 14521); ATCC14521, 120 h, Time 5 days
  MIC: 0.06 mg/L (≈ 0.113 µM)
M. furfur (ATCC 14521); ATCC14521, 144 h, Time 6 days
  MIC: 0.06 mg/L (≈ 0.113 µM)
M. furfur (ATCC 14521); ATCC14521, 168 h, Time 7 days
  MIC: 0.25 mg/L (≈ 0.47 µM)
M. furfur (ATCC 14521); Time 0.5 days
  minimum inhibition concentration (MIC): NGO
M. furfur (ATCC 14521); Time 1 days
  minimum inhibition concentration (MIC): NGO
M. furfur (ATCC 44344); ATCC44344, 48 h, Time 2 days
  MIC: 0.125 mg/L (≈ 0.235 µM)
M. furfur (ATCC 44344); ATCC44344, 72 h, Time 3 days
  MIC: 0.125 mg/L (≈ 0.235 µM)
M. furfur (ATCC 44344); ATCC44344, 96 h, Time 4 days
  MIC: 0.125 mg/L (≈ 0.235 µM)
M. furfur (ATCC 44344); ATCC44344, 120 h, Time 5 days
  MIC: 0.25 mg/L (≈ 0.47 µM)
M. furfur (ATCC 44344); ATCC44344, 144 h, Time 6 days
  MIC: 0.25 mg/L (≈ 0.47 µM)
M. furfur (ATCC 44344); ATCC44344, 168 h, Time 7 days
  MIC: 0.125 mg/L (≈ 0.235 µM)
M. furfur (ATCC 44344); Time 0.5 days
  minimum inhibition concentration (MIC): NGO
M. furfur (ATCC 44344); Time 1 days
  minimum inhibition concentration (MIC): NGO
M. furfur (ATCC 12078); ATCC12078, 48 h, Time 2 days
  MIC: 0.06 mg/L (≈ 0.113 µM)
M. furfur (ATCC 12078); ATCC12078, 72 h, Time 3 days
  MIC: 0.06 mg/L (≈ 0.113 µM)
M. furfur (ATCC 12078); ATCC12078, 96 h, Time 4 days
  MIC: 0.06 mg/L (≈ 0.113 µM)
M. furfur (ATCC 12078); ATCC12078, 120 h, Time 5 days
  MIC: 0.06 mg/L (≈ 0.113 µM)
M. furfur (ATCC 12078); ATCC12078, 144 h, Time 6 days
  MIC: 0.06 mg/L (≈ 0.113 µM)
M. furfur (ATCC 12078); ATCC12078, 168 h, Time 7 days
  MIC: 0.25 mg/L (≈ 0.47 µM)
M. furfur (ATCC 12078); Time 0.5 days
  minimum inhibition concentration (MIC): NGO
M. furfur (ATCC 12078); Time 1 days
  minimum inhibition concentration (MIC): NGO
[2]; Time 0.5 days
  minimum inhibition concentration (MIC): NGO
[2]; ATCC22019, 24 h, Time 1 days
  MIC: 0.5 mg/L (≈ 0.941 µM)
[2]; ATCC22019, 48 h, Time 2 days
  MIC: 0.5 mg/L (≈ 0.941 µM)
[2]; ATCC22019, 72 h, Time 3 days
  MIC: 0.5 mg/L (≈ 0.941 µM)
[2]; ATCC22019, 96 h, Time 4 days
  MIC: 0.5 mg/L (≈ 0.941 µM)
[2]; ATCC22019, 120 h, Time 5 days
  MIC: 1 mg/L (≈ 1.88 µM)
[2]; ATCC22019, 144 h, Time 6 days
  MIC: 1 mg/L (≈ 1.88 µM)
[2]; ATCC22019, 168 h, Time 7 days
  MIC: 2 mg/L (≈ 3.76 µM)
C. albicans (ATCC 90028); ATCC90028, 24 h, Time 1 days
  MIC: 0.06 mg/L (≈ 0.113 µM)
C. albicans (ATCC 90028); ATCC90028, 48 h, Time 2 days
  MIC: 0.06 mg/L (≈ 0.113 µM)
C. albicans (ATCC 90028); ATCC90028, 72 h, Time 3 days
  MIC: 0.125 mg/L (≈ 0.235 µM)
C. albicans (ATCC 90028); ATCC90028, 96 h, Time 4 days
  MIC: 0.25 mg/L (≈ 0.47 µM)
C. albicans (ATCC 90028); ATCC90028, 120 h, Time 5 days
  MIC: 0.25 mg/L (≈ 0.47 µM)
C. albicans (ATCC 90028); ATCC90028, 144 h, Time 6 days
  MIC: 0.25 mg/L (≈ 0.47 µM)
C. albicans (ATCC 90028); ATCC90028, 168 h, Time 7 days
  MIC: 0.25 mg/L (≈ 0.47 µM)
C. albicans (ATCC 90028); Time 0.5 days
  minimum inhibition concentration (MIC): NGO
[3]; Time 0.5 days
  minimum inhibition concentration (MIC): NGO
[3]; Time 1 days
  minimum inhibition concentration (MIC): NGO
[3]; Time 2 days
  minimum inhibition concentration (MIC): NGO
[3]; Time 3 days
  minimum inhibition concentration (MIC): NGO
[3]; Time 4 days
  minimum inhibition concentration (MIC): NGO
[3]; Time 5 days
  minimum inhibition concentration (MIC): NGO
[3]; Time 6 days
  minimum inhibition concentration (MIC): NGO
[3]; Time 7 days
  minimum inhibition concentration (MIC): NGO
[4]; Time 0.5 days
  minimum inhibition concentration (MIC): NGO
[4]; Time 1 days
  minimum inhibition concentration (MIC): NGO
[4]; Time 2 days
  minimum inhibition concentration (MIC): NGO
[4]; Time 3 days
  minimum inhibition concentration (MIC): NGO
[4]; Time 4 days
  minimum inhibition concentration (MIC): NGO
[4]; Time 5 days
  minimum inhibition concentration (MIC): NGO
[4]; Time 6 days
  minimum inhibition concentration (MIC): NGO
[4]; Time 7 days
  minimum inhibition concentration (MIC): NGO
[5]; at 24 hours
  expected CLSI values: 0.03-0.25
[5]; at 48 hours
  expected CLSI values: 0.06-0.5
C. krusei (ATCC 6258) [6]; at 24 hours
  CLSI expected values: 0.12-1
C. krusei (ATCC 6258) [6]; at 48 hours
  CLSI expected values: 0.25-1
